Results as given in patent publication EP3381897A1, “DERIVATIVES OF THE DISODIUM 2,2'-{CARBONYLBIS[IMINO-3,1-PHENYLENECARBONYLIMINO(1-METHYL-1H-PYRROLE-4,2-DIYL)CARBONYLIMINO]}DINAPHTHALENE-1,5-DISULFONATE SALT AND RELATED COMPOUNDS AS HEPARANASE INHIBITORS FOR THE TREATMENT OF CANCER” (Leadiant Biosciences SA, priority 2017, dated 2018).
pIC50: −log10 of the molar value. Structures can show the parent of a compound that is named as a salt.

Legend:
[1] = test system: HT1080 (human fibrosarcoma); assay: Cell adhesion assay on matrigel coated wells; format: cell-based; conditions: percent of adhesion with respect to the control (100%)
Method: Cell surface, non-integrin molecules such as heparan sulfate proteoglycans (HSPGs) may be involved in the regulation of early adhesive stages of cell-ECM interactions. A cell adhesion assay has been employed to determine if the newly designed heparanase inhibitors were able to interfere with adhesion properties of cancer cells. […] Then cells were collected, washed in complete medium, and added to matrigel coated wells in triplicate, at previously identified optimal seeding density, and incubated at 37 °C in complete medium for times ranging from 15 minutes to 4h, according to the cell line. […] Optical density was measured at 560 nm by Victor 3 (Perkin-Elmer) plate analyzer. Each experiment was repeated three times. Table 4. […] In Invasion assay, data were expressed as the percent invasion (range) with respect to cell migration through uncoated insert membrane.

VEGF = assay: Real-Time quantitative PCR of mRNA gene expression in HT1080 cells; format: cell-based, human; conditions: 2.5 uM, 24 h
HPSE-1 = conditions: 2.5µM; HT1080 cells
Method: To evaluate the effect of heparanase inhibitors on the tumor transcription of genes encoding for proangiogenic factors, such as FGF1/2, VEGF, MMP-9, HSPE-1, the relative mRNA levels were analyzed by quantitative Real-Time Quantitative PCR. To perform the assay, HT1080 (human fibrosarcoma) cells were cultured in complete medium containing 10%FCS (fetal calf serum). Cells were plated in 24-well plates and treated at fixed concentration (i.e., highest non-toxic concentration) of test compounds. After 24 h, cells were detached, collected and total RNA extracted by RNeasy Mini Kit (QIAGEN). Following reverse transcription step, FGF1/2, VEGF, MMP-9, HSPE-1 mRNA levels, were quantified by qPCR using the advanced Universal SYBR Green Supermix (Bio Rad) and ABI PRISM 7900HT Thermal Cycler System (Perkin Elmer), according to the manufacturer's instructions. […] Relative levels of RNA were calculated using the ddCt method. Standard curve and sample data were run in duplicate.

FGF-1 = assay: Real-Time quantitative PCR of mRNA gene expression in HT1080 cells; format: cell-based, human; conditions: 2.5 uM, 24 h
MMP-9 = assay: as above; format: cell-based, human; conditions: 2.5 uM, 24 h
FGF-2 = assay: as above; format: cell-based, human; conditions: 2.5 uM, 24 h
[2] = test system: HT1080 (human fibrosarcoma); assay: Matrigel cell invasion assay; format: cell-based; conditions: HT-1080
Method: Heparanase inhibitors were then evaluated for their activity on the invasive potential of HT1080 (human fibrosarcoma) human cell lines, using the Matrigel cell invasion assay which allows to assess the cell invasion ability of malignant and normal cells. Invasion assay was performed using BioCoat cell culture inserts (BioCoat 8.0µm PET Membrane 24 Well Permeable Supports, Corning). Filters were coated with 100 µl of 300 µg/ml Matrigel dissolved in coating buffer (0.01 M Tris pH 8.0, 0.7% NaCl) (Becton-Dickinson Sciences). DMEM (Dulbecco's Modified Eagle's Medium) containing 5% FBS was added to the lower chambers. Cells were pre-treated with heparanase inhibitors for 24 h, detached and added to the upper chambers in media containing the inhibitors. Cells were allowed to invade for 24 h at 37°C in a CO2 incubator and then unmigrated cells were removed from the upper chamber with a cotton swab. […] Test compounds were analyzed at fixed concentration for several fields, in duplicates. Activity of test compounds was compared to the reference compound. Activity of most interesting compound was confirmed in a second cell invasion assay. Data were expressed as the percent invasion with respect to cell migration through uncoated insert membrane. (Table 4) Table 4. […] In Invasion assay, data were expressed as the percent invasion (range) with respect to cell migration through uncoated insert membrane.

[3] = test system: U87MG (human glioblastoma astrocytoma); assay: SRB Cell Cytotoxicity Assay; format: cell-based
Method: (§1) SRB Cell Cytotoxicity Assay is an assay based upon the quantitative staining of cellular proteins by sulforhodamine B (SRB). This assay can be used for high-throughput drug screening ([…], Nature Protocol. 2006, 1, 112). Sulforhodamine B is an anionic aminoxanthene dye that forms an electrostatic complex with the basic amino acid residues of proteins under moderately acid conditions, which provides a sensitive linear response. […] Inhibition of cell proliferation was then measured by the classical colorimetric SRB Cell Cytotoxicity assay. Absorbance was measured by spectrophotometer at a wavelength of 510 nm and cell proliferation was determined as percent with respect to control cells (cells treated with the vehicle alone). EC50 values were then determined by GraphPad Prism.

[4] = test system: HT1080 (human fibrosarcoma); assay: SRB Cell Cytotoxicity Assay; format: cell-based
Method: as §1

[5] = test system: U2OS (human osteosarcoma); assay: SRB Cell Cytotoxicity Assay; format: cell-based
Method: as §1

SMILES | Adhesion Assay (%) HT1080; 2.5 µM ([1]; 2.5 µM) | Gene Expression (% mRNA vs. control) VEGF (VEGF) | silencing of heparanase gene (in words) (HPSE-1) | Gene Expression (% mRNA vs. control) FGF-1 (FGF-1) | Gene Expression (% mRNA vs. control) MMP-9 (MMP-9) | Gene Expression (% mRNA vs. control) FGF-2 (FGF-2) | also measured
Cn1cc(NC(=O)c2cccc(NC(=O)Nc3cccc(C(=O)Nc4cc(C(=O)Nc5ccc6c(S(=O)(=O)O)cccc6c5S(=O)(=O)O)n(C)c4)c3)c2)cc1C(=O)Nc1ccc2c(S(=O)(=O)[O-])cccc2c1S(=O)(=O)[O-].[Na+].[Na+] [Example 1, Disodium 2,2'-{carbonylbis[imino-3,1-phenylenecarbonylimino(1-methyl-1H-pyrrole-4,2-diyl)carbonylimino]}dinaphthalene-1,5-disulfonate salt] | ∼ 86% | – | – | – | – | – | –
O=C(Nc1cccc(C(=O)Nc2cc(C(=O)Nc3ccc4c(S(=O)(=O)[O-])cccc4c3S(=O)(=O)[O-])n(C3CC3)c2)c1)Nc1cccc(C(=O)Nc2cc(C(=O)Nc3ccc4c(S(=O)(=O)O)cccc4c3S(=O)(=O)O)n(C3CC3)c2)c1.[Na+].[Na+] [Example 2, Disodium 2,2'-{carbonylbis[imino-3,1-phenylenecarbonylimino(1-cyclopropyl-1H-pyrrole-4,2-diyl)carbonylimino]}dinaphthalene-1,5-disulfonate salt] | ∼ 88% | – | – | – | – | – | –
Cn1cc(NC(=O)Nc2cc(C(=O)Nc3cccc(C(=O)Nc4ccc5c(S(=O)(=O)O)cccc5c4S(=O)(=O)O)c3)n(C)c2)cc1C(=O)Nc1cccc(C(=O)Nc2ccc3c(S(=O)(=O)O)cccc3c2S(=O)(=O)O)c1 [Example 6, Disodium 2,2'-{carbonylbis[imino(1-methyl-1H-pyrrole-4,2-diyl)carbonylimino-3,1-phenylenecarbonylimino]}dinaphthalene-1,5-disulfonate salt] | ∼ 86% | ∼ 85% | almost complete silencing of heparanase gene | ∼ 87% | ∼ 80% | ∼ 98% | –
Cn1cc(NC(=O)Nc2cc(C(=O)Nc3cc(C(=O)Nc4ccc5c(S(=O)(=O)O)cccc5c4S(=O)(=O)O)n(C)c3)n(C)c2)cc1C(=O)Nc1cc(C(=O)Nc2ccc3c(S(=O)(=O)O)cccc3c2S(=O)(=O)O)n(C)c1 [FCE27266, disodium 2,2'-{carbonylbis[imino(1-methyl-1H-pyrrole-4,2-diyl)carbonylimino(1-methyl-1H-pyrrole-4,2-diyl)carbonylimino]}dinaphthalene-1,5-disulfonate salt] | ∼ 93% | ∼ 100% | almost complete silencing of heparanase gene | ∼ 44% | ∼ 100% | ∼ 86% | –
Cc1ccc(C(=O)Nc2ccc(S(=O)(=O)O)c3cc(S(=O)(=O)O)cc(S(=O)(=O)O)c23)cc1NC(=O)c1cccc(NC(=O)Nc2cccc(C(=O)Nc3cc(C(=O)Nc4ccc(S(=O)(=O)O)c5cc(S(=O)(=O)O)cc(S(=O)(=O)O)c45)ccc3C)c2)c1 [Suramin, suramin] | – | – | – | – | – | – | inhibition at 2.5 µM [2]: < 50%; Adhesion Assay (%) HT1080; 2.5 µM ([1]; Reference compound (Suramin) at 10 µM according to b319): ∼ 100%; pIC50 ([3]; Homo sapiens, U-87 MG, 72h treatment, read-out: Concentration of test compounds at which the cell growth is inhibited by 50 % U87MG): < 5.60; interference with the cell growth (in words) ([3]; U87MG, tested up to 2.5 µM): do not interfere with the cell growth; interference with the cell growth (in words) ([4]; HT1080, tested up to 2.5 µM): do not interfere with the cell growth; pIC50 ([4]; Homo sapiens, HT-1080, 72h treatment, read-out: Concentration of test compounds at which the cell growth is inhibited by 50 % HT1080): < 5.60; pIC50 ([5]; Homo sapiens, 72h treatment, read-out: Concentration of test compounds at which the cell growth is inhibited by 50 % U2OS): < 5.60; interference with the cell growth (in words) ([5]; tested up to 2.5 µM): do not interfere with the cell growth
